Laboratory results as given in patent US7026330B2, “Methods for treatment of acute lymphocytic leukemia” (The Children's Hospital of Philadelphia, priority 2002, dated 2006).
Entries after “also recorded” stand apart in the source; their conditions may differ. Like-named read-outs stand apart in the source and are kept apart here.

Assays:
[1] = test system: Eμ-RET+ mice with advanced leukemia; experiment: RAD001 in the ALL mouse model; assay type: in vivo; settings: daily oral administration
From the text: RAD001 inhibits growth >50–90% in ALL cell lines. Daily oral administration of RAD001 extends survival almost 4 fold in Eμ-RET+ mice with advanced leukemia (high white blood count, large nodal masses, and massive hepatosplenomegaly) as compared to untreated littermates.

[2] = test system: ALL cell lines; experiment: RAD001 growth suppression in ALL cells in vitro; assay type: cell-based
[3] = test system: pro-B ALL cell line T309; experiment: Apoptosis assay (Annexin V-FITC, flow cytometry); assay type: cell-based, mouse; settings: 72 hours, baseline 24%
Experimental: Apoptosis Assay. […] Levels of exposed phosphotidylserine on viable cells were measured using the ApoAlert Annexin V detection kit (Clontech, Palo Alto, Calif.). Cells were incubated with FITC-conjugated Annexin V, and log fluorescence intensity was analyzed by flow cytometry using a FACScan cytometer (Becton-Dickinson, Franklin Lakes, N.J.).

[4] = cited from earlier work
[5] = test system: Eμ-RET+ transgenic mice with overt disease; settings: for Plt, mean / WBC, mean / Weight, mean: treated group
Experimental: Mice were assessed three times a week for overt signs of disease (enlarged lymph nodes, organomegaly, and anemia). […] Prior to randomization, easily accessible enlarged lymph nodes were biopsied for cell culture and further in vitro study. Peripheral blood for CBC with differential (HemaVet 850FS, Cell Technologies, Oxford, Conn.) and pK studies was obtained by eye bleeding at days 0, 7, 14 and then every other week until death. Peripheral blood as well as single cell suspension from bone marrow, lymph nodes and/or spleen was obtained at death. Weights were monitored three times a week. […] Animals were sacrificed when moribund. Event free survival (EFS) was determined from onset of disease until death, and analyzed using STATA 7.0 (STATA Corporation, College Park, Tex.).

[6] = cited from earlier work; for trough concentration: Phase III studies with cyclosporine, steroid, or both; for mean time-to-peak concentration: oral
[7] = test system: Eμ-RET+ transgenic mouse derived cell lines, #83, T309, #289, #420.2; experiment: MTT proliferation assay, ALL cell lines; assay type: cell-based
Experimental: (§1) Cell Preparation and Cell Culture Conditions. A single cell suspension of bone marrow or lymph nodes from leukemic Eμ-RET+ transgenic mice was prepared [Wasserman, 1998]. These ALL cells were maintained at 37° C. with 5% CO2 in RPMI-1640, L-Glutamine, 10 mM HEPES, 1 mM Sodium Pyruvate, 100 μM non-essential amino acids, 100 U/ml penicillin, 100 μg/ml streptomycin (GibCo-BRL, Rocksville, Md.), 50 μM 2-mercaptoethanol (FisherScientific, Fair Lawn, N.J.)+10% Fetal Calf Serum (HyClone, Logan, Utah)+10% Calf Serum (HyClone, Logan Utah) (C20 media) with 10 U/ml IL-7. Cell surface markers on these cells were determined by flow cytometry as described previously [Wasserman, 1998], and the phenotype was stable in culture over time.
(§2) Proliferation Assays. Cells were cultured in IL-7-free C20 media for 24 hours. […] Cell growth was assayed using methyl-thiazole-tetrazolin (MTT) [Mosmann, 1983]. After removing 50 μl media from each well, 10 μl MTT, 5 mg/ml, (Sigma, St. Louis, Mo.) was added to each sample and incubated for 4 hours. 150 μl 1% HCL/Isopropanol was added to each sample and mixed vigorously until all crystals dissolved. Absorbance was measured at OD595 using microplate spectrophotometer (Benchmark Microplate Reader, Bio-Rad Laboratories, Hercules, Calif.). Results are expressed as mean of absolute absorbance numbertreated sample divided by the mean of absolute absorbance numbercontrol sample. Results >1 indicates proliferation whereas results <1 indicates growth inhibition.

[8] = test system: steroid refractory severe acute GVHD; settings: cited from earlier work
[9] = test system: A20 mature B cell line; experiment: Proliferation of mature B cell line A20; assay type: cell-based; settings: data not shown
Experimental: as §2

[10] = test system: #781 cell line; experiment: MTT proliferation assay, cell line #781; assay type: cell-based, mouse; settings: increasing rmIL-7 0–30 U/ml, no stroma, 4–5 days
Experimental: as §1
as §2, with “150 μl 1% HCL/Isopropanol was added to each sample and mixed vigorously until all crystals dissolved.” left out, “Results >1 indicates proliferation whereas results <1 indicates growth inhibition.” left out

[11] = test system: cell line #420.2; experiment: MTT proliferation assay, cell line #420.2; assay type: cell-based, mouse; settings: increasing rmIL-7 0–30 U/ml, no stroma, 4–5 days
Experimental: as §1
as §2, with “150 μl 1% HCL/Isopropanol was added to each sample and mixed vigorously until all crystals dissolved.” left out, “Results >1 indicates proliferation whereas results <1 indicates growth inhibition.” left out

[12] = test system: YES proto-oncogene; experiment: mRNA expression in ALL cells (Affymetrix MG-U74Av4 Genechips); assay type: cell-based; settings: addition of IL-7
From the text: We found the most profound change in expression in the YES proto-oncogene, a member of the src family of kinases. […] However, the ability of IL-7 to reverse rapamycin-induced growth inhibition may involve other target proteins downstream of p70S6 kinase, such as p27kip1 or cdk2.

[13] = test system: cell line T309; experiment: MTT proliferation assay, cell line T309; assay type: cell-based, mouse; settings: increasing rmIL-7 0–30 U/ml, no stroma, 4–5 days
Experimental: as §1
as §2, with “150 μl 1% HCL/Isopropanol was added to each sample and mixed vigorously until all crystals dissolved.” left out, “Results >1 indicates proliferation whereas results <1 indicates growth inhibition.” left out

[14] = test system: ALL cell line #289; experiment: MTT proliferation assay, cell line #289; assay type: cell-based, mouse
Experimental: as §1, §2

[15] = test system: phosphor-p70S6 kinase (Thr389); experiment: Immunoblotting of p70S6 kinase in ALL cell line #289; assay type: cell-based, mouse; settings: 4 hours
Experimental: Crude Lysate Preparation and Immunoblotting. […] After harvesting, cells were washed with ice cold PBS and then lysed in 100 μl of 1% Triton-X containing protease and phosphatase inhibitors (1 μg/ml apoprotinin, 1 μg/ml leupeptin, 1 mM […], 1 mM NaF, 0.1 mM AEBSF) at 4° C. for 5 minutes. Crude lysates were obtained by centrifugation (12,000 rpm at 4° C. for 20 minutes). Protein concentrations were determined using Bio-Rad Protein assay kit (Bio-Rad Laboratories, Hercules, Calif.). Equal amounts of protein were analyzed by 4–12% Tris-Bis gel electrophoresis and transferred to PVDF membranes (NuPage Invitrogen, Carlsbad, Calif.). Specific proteins were detected with anti-Phosphor-p70S6 kinase (Thr389) and anti-total p70S6 kinase antibodies (Cell Signaling Technologies, Beverly, Mass.) diluted in TTBS (1:500). Immunodetection was performed with horseradish peroxidase-conjugated anti-rabbit IgG and then developed by chemoluminescence (Amersham Pharmacia Biotech, Piscataway, N.J.). Immunoblots were stripped for reprobing by incubating immunoblots in stripping buffer (100 mM 2-mercaptoethanol, 2% sodium dodecyl sulphate, 62.5 mM Tris-HCl pH 6.7) for 30 minutes in 37° C. water bath with occasional agitation. […] Specific proteins were immunoblotted and detected as above.

[16] = test system: cell line #83; experiment: MTT proliferation assay, cell line #83; assay type: cell-based, mouse; settings: increasing rmIL-7 0–30 U/ml, no stroma, 4–5 days
Experimental: as §1
as §2, with “150 μl 1% HCL/Isopropanol was added to each sample and mixed vigorously until all crystals dissolved.” left out, “Results >1 indicates proliferation whereas results <1 indicates growth inhibition.” left out

[17] = Mus musculus, 72 h, read-out: inhibition of growth

CO[C@H]1C[C@@H]2CC[C@@H](C)[C@@](O)(O2)C(=O)C(=O)N2CCCC[C@H]2C(=O)O[C@H]([C@H](C)C[C@@H]2CC[C@@H](OCCO)[C@H](OC)C2)CC(=O)[C@H](C)/C=C(\C)[C@@H](O)[C@@H](OC)C(=O)[C@H](C)C[C@H](C)/C=C/C=C/C=C/1C [RAD001, everolimus]
extension of survival vs untreated littermates [1]: ~4 fold
nodal masses [1]: disappearance of nodal masses
peripheral WBC counts [1]: normalization of peripheral WBC counts
growth inhibition [2]: 50–90%

CO[C@H]1C[C@@H]2CC[C@@H](C)[C@@](O)(O2)C(=O)C(=O)N2CCCC[C@H]2C(=O)O[C@H]([C@H](C)C[C@@H]2CC[C@@H](O)[C@H](OC)C2)CC(=O)[C@H](C)/C=C(\C)[C@@H](O)[C@@H](OC)C(=O)[C@H](C)C[C@H](C)/C=C/C=C/C=C/1C [rapamycin]
cells labeled with Annexin V ([3]; 1 ng/ml rapamycin): 44%
cells labeled with Annexin V ([3]; 100 ng/ml rapamycin): 51%
major side effects ([4]; adult organ rejection trials, 2 mg or 5 mg daily with cyclosporine and corticosteroids): thrombocytopenia, hypercholesteremia, hypertriglyceridemia, and diarrhea
toxicities of CTC Grade III and IV ([4]; pediatric kidney transplantation, with corticosteroids and MMF): stomatitis, hypercholesteremia, and hypertriglyceridemia
toxicity in single dosing studies ([4]; single doses ranging from 3–21 mg/m^2): No toxicity
mean hemoglobin and platelet counts, untreated vs rapamycin treated mice ([5]; 5 mg/kg IP daily): not significantly different
time to normalization of WBC after instituting therapy ([5]; 5 mg/kg IP daily): 7 to 10 days
weights of treated versus untreated groups ([5]; 5 mg/kg IP daily): not significantly different
average time from diagnosis to death ([5]; 5 mg/kg IP daily, N=34, untreated 12 days (N=23), p<0.001): 30 days
extension of survival vs untreated mice ([5]; 5 mg/kg IP daily, single agent, advanced disease): ~3 fold
WBC nadir of the typical mouse of FIG. 8 ([5]; after 14 days of rapamycin, WBC 28.8 at presentation): 3.2
Plt, mean ([5]; D0): 695000 µL⁻¹
WBC, mean ([5]; D0): 47800 µL⁻¹
Weight, mean ([5]; D0): 25.6 grams
Plt, mean ([5]; D7): 584000 µL⁻¹
WBC, mean ([5]; D7): 18500 µL⁻¹
Weight, mean ([5]; D14): 28.1 grams
Plt, mean ([5]; at sacrifice): 573000 µL⁻¹
WBC, mean ([5]; at sacrifice): 31000 µL⁻¹
Weight, mean ([5]; at sacrifice): 28.10 grams
Plt, mean ([5]; d21): 526000 µL⁻¹
WBC, mean ([5]; d21): 14300 µL⁻¹
trough concentration ([6]; 2 mg/day): 8.58 ± 4.0 ng/mL
trough concentration ([6]; 5 mg/day): 17.3 ± 7.4 ng/mL
elimination of the drug via the GI tract ([6]; human, in vivo): 91%
metabolism ([6]; human, in vivo): intestinal and hepatic CYP3A4 enzyme family
time to near steady-state concentrations ([6]; loading dose of 3 times the maintenance dose, most patients): ≤ 1 days
mean time-to-peak concentration ([6]; healthy subjects): 1 h
mean time-to-peak concentration ([6]; renal transplant recipients): 2 h
typical serum levels of patients ([6]; patients on rapamycin [MacDonald, 2000]): 8 to 12 ng/mL
half-lives ([6]; pediatric patients 5–11 years): shorter
oral clearances ([6]; pediatric patients 5–11 years): greater
dose dependence of concentrations ([6]; stable renal transplant patients, between 3 and 12 mg/m^2): dose proportional
inhibition at 0.001 µg/mL [7, 17]: > 40%
inhibition at 0.1 µg/mL [7, 17]: > 70%
discontinuation of drug because of toxicities ([8]; 21 patients): 5 patients
hemolytic uremic syndrome developed ([8]; cyclosporine dose not reduced): 5 patients
most common side effects ([8]; in vivo): thrombocytopenia and neutropenia, elevated serum triglycerides and cholesterol

B1: rmIL-7: recombinant mouse IL-7 (rmIL-7) (Leinco Technologies, Inc.) (protein, UniProt P10168 26-154, looked up)
Interleukin-7: ECHIKDKEGKAYESVLMISIDELDKMTGTDSNCPNNEPNFFRKHVCDDTKEAAFLNRAARKLKQFLKMNISEEFNVHLLTVSQGTQTLVNCTSKEEKNVKEQKKNDACFLKRLLREIKTCWNKILKGSI
proliferation [9]: not affected
increase in proliferation [10]: 16 fold
increase in proliferation [11]: 2.2 fold
effect on YES expression in rapamycin-treated cells [12]: completely rescued
increase in proliferation [13]: 3.7 fold
increase in proliferation ([14]; increasing rmIL-7 0–30 U/ml, no stroma, 4–5 days): 2.2 fold
reversal of rapamycin-induced growth inhibition ([14]; rmIL-7 10 U/ml with rapamycin 1 ng/ml, 3 days): completely reverses
reversal of rapamycin's effect on cell growth ([14]; rmIL-7 10 U/ml with rapamycin 100 ng/ml, 3 days, only partial): ~80 % of baseline
effect on rapamycin-induced decrease in phosphor-p70S6 kinase ([15]; 10 U/ml IL-7 + 100 ng/ml rapamycin, listed as IL-7): reversed; also recorded: restored to baseline
p70S6 kinase total protein levels ([15]; 100 ng/ml rapamycin or 10 U/ml IL-7): unchanged
concentration at which the response appears to plateau ([7]; cell lines #83, #781, T309, #289, #420.2): 10–30 U/ml
increase in proliferation [16]: ~100 fold
